According to US9796674B2, “Benzyl urea derivatives for activating TGF-beta signaling” (THE BOARD OF TRUSTEES OF THE LELAND STANFORD JUNIOR …, priority 2013, dated 2017):
“Also recorded” adds a separate entry of the source.

Tested on: human macrophages differentiated from THP-1 monocytic cell lines
Assay: Fibrillar Aβ clearance by THP-1 macrophages
Format: cell-based
Details: 24 h, 2, 5, or 10 μM
Protocol: SRI-011381 promotes Aβ clearance in cell culture: TGF-β1 promotes Aβ clearance in a microglia cell line. To test whether SRI-011381 has similar properties, mouse J774A.1 macrophages and human macrophages differentiated from THP-1 monocytic cell lines were treated with fibrillar Aβ in the absence or presence of compound (2, 5, or 10 μM) for 24 h. Conditioned medium was harvested and the remaining Aβ that was not phagocytosed by macrophages was quantified by Aβ ELISA.
FIGS. 4A and 4B present data from experiments in which human macrophages differentiated from THP-1 monocytic cell lines and mouse J774A.1 macrophages were incubated with fibrillar Aβ in the absence or presence of compound (2 or 5 μM) for 24 h. Conditioned medium was harvested and the remaining Aβ was quantified by Aβ ELISA. The collected medium (FIGS. 4C-4D) was added to N2A-APP-Swe cells (mouse Neuro-2A neuroblastoma cells stably expressing Swedish APP695) and incubated for 24 h. Neurotoxicity was quantified by an MTS Assay.
Mouse J774A.1 macrophages and human macrophages that were differentiated from THP-1 monocytic cell lines were treated with fibrillar Aβ42 in the absence or presence of SRI-011382 or its derivative compounds (2, 5, or 10 μM) for 24 h. Conditioned medium was harvested and the remaining Aβ42 that was not phagocytosed by macrophages was quantified by Aβ42 ELISA kit (Invitrogen). […]

O=C(NC1CCCCC1)N(Cc1ccccc1)CC1CCNCC1 [SRI-011381, 1-Benzyl-3-cyclohexyl-1-(piperidin-4-ylmethyl)urea]
fibrillar Aβ clearance: promoted fibrillar Aβ clearance; also recorded: promoted fibrillar Aβ42 clearance | fibrillar Aβ clearance (listed as SRI-11381): promote fibrillar Aβ42 clearance
